{
  "source": "paper PMC6834573",
  "about": "“Novel insights into transketolase activation by cofactor binding identifies two native species subpopulations” (Scientific Reports, 2019)",
  "key": {"[1]": {"target": "T1, wild-type E. coli transketolase (TK; TKhigh / TKlow subpopulations) (Escherichia coli, UniProt P27302)", "T1 construct": "gene tktA; full length, N-terminal His6-tag kept, from plasmid pQR791 in E. coli XL10-gold; apo form after dialysis; homodimer; about one third oxidised (TKhigh), rest unmodified (TKlow)", "T1 sequence (P27302 whole entry)": "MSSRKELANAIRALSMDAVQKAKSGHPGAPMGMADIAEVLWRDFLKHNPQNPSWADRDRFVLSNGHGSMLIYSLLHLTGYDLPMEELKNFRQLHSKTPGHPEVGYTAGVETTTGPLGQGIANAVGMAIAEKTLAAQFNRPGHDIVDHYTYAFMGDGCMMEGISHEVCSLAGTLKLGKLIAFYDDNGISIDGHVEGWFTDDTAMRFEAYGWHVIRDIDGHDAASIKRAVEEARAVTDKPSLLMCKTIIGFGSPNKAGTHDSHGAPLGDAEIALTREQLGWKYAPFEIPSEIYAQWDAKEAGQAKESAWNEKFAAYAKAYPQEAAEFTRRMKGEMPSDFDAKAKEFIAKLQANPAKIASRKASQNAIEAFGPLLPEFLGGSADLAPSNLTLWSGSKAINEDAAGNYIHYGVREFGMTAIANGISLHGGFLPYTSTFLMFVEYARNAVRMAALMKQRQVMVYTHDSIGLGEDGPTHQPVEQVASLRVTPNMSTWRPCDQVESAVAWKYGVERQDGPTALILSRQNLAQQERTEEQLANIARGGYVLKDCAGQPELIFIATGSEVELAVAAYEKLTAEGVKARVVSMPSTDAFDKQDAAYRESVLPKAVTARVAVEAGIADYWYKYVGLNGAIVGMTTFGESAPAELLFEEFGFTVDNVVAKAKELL", "experiment": "intrinsic fluorescence quenching (ex […] nm, em […] nm), double-Hill fit", "format": "binding", "settings": "read-out: Kd(high)"}, "[2]": {"target": "T1, wild-type E. coli transketolase (TK; TKhigh / TKlow subpopulations)", "experiment": "intrinsic fluorescence quenching (ex […] nm, em […] nm), double-Hill fit", "format": "binding", "settings": "second site, 9 mM Mg2+, 50 mM Tris-HCl pH 7.0, 22 °C, 0.05 mg/mL TK, low-affinity subpopulation TKlow (chemically unmodified enzyme)"}, "[3]": {"target": "the molecule itself", "experiment": "AUC; sedimentation velocity, apoTK at 0.2 mg/mL without Mg2+ and TPP, 20 °C, pH 7.0, 40,000 rpm, c(s) analysis with SEDFIT; dimer to monomers"}},
  "data": [
    {"molecule": "Cc1ncc(C[n+]2csc(CCOP(=O)(O)OP(=O)(O)O)c2C)c(N)n1", "note": "[TPP, thiamine pyrophosphate]", "values": [
      {"measurement": "Kd", "setting": "[1]", "value": "2290 ± 230", "unit": "nM"},
      {"measurement": "Kd(low)", "setting": "[2]", "value": "276000 ± 25000", "unit": "nM"}
    ]},
    {"molecule": "Wild-type E. coli transketolase (apo-transketolase) (enzyme, Transketolase (EC 2.2.1.1) of E. coli, wild type; monomeric molecular weight 73035.5 g/mol as printed; The preparation is a mixture; By mass spectrometry about 31% carries one or two extra oxygen atoms (TKhigh, most likely Cys157 sulfenic or sulfinic acid) and the rest is unmodified (TKlow); also called TK; apoTK; source: E. coli XL10-gold, from the plasmid pQR791, purified, ultrafiltrated and …) SSRKELANAIRALSMDAVQKAKSGHPGAPMGMADIAEVLWRDFLKHNPQNPSWADRDRFVLSNGHGSMLIYSLLHLTGYDLPMEELKNFRQLHSKTPGHPEVGYTAGVETTTGPLGQGIANAVGMAIAEKTLAAQFNRPGHDIVDHYTYAFMGDGCMMEGISHEVCSLAGTLKLGKLIAFYDDNGISIDGHVEGWFTDDTAMRFEAYGWHVIRDIDGHDAASIKRAVEEARAVTDKPSLLMCKTIIGFGSPNKAGTHDSHGAPLGDAEIALTREQLGWKYAPFEIPSEIYAQWDAKEAGQAKESAWNEKFAAYAKAYPQEAAEFTRRMKGEMPSDFDAKAKEFIAKLQANPAKIASRKASQNAIEAFGPLLPEFLGGSADLAPSNLTLWSGSKAINEDAAGNYIHYGVREFGMTAIANGISLHGGFLPYTSTFLMFVEYARNAVRMAALMKQRQVMVYTHDSIGLGEDGPTHQPVEQVASLRVTPNMSTWRPCDQVESAVAWKYGVERQDGPTALILSRQNLAQQERTEEQLANIARGGYVLKDCAGQPELIFIATGSEVELAVAAYEKLTAEGVKARVVSMPSTDAFDKQDAAYRESVLPKAVTARVAVEAGIADYWYKYVGLNGAIVGMTTFGESAPAELLFEEFGFTVDNVVAKAKELL", "values": [
      {"measurement": "stoichiometry N", "setting": "[3]", "value": 2}
    ]}
  ]
}
